biological target: PDE9A (Homo sapiens (Human), UniProt O76083); test: PDE9A inhibitory activity, fluorescence polarization assay (IMAP-FP screening express kit); assay type: biochemical; settings: enzyme PDE9A 5 ng/ml, Fl-cGMP substrate 100 nM, room temperature 1 hour
Procedure: The inhibitory activity of the representative compounds according to the present invention against phosphodiesterase 9A was tested based on the polarization assay (IMAP-FP screening express kit) provided by MDS (MDS Analytical Technologies, Sunyvale, CA, USA). As a buffer solution, a reaction solution (a reaction solution containing 0.01% Tween 20 provided by MDS was diluted 5 times, then 5 mM DTT is added) and a polarization detection solution (binding solution A and B provided by MDS were mixed at a ratio of 3:1 and IMAP binding reagent 1/600 was added) were prepared. 100 μM of the substrate (Fl-cGMP substrate; MDS) and 3.6 μg/ml of the enzyme PDE9A (ab54113; abeam) were prepared. 3.6 μg/ml PDE9A and 100 μM substrate were diluted to 20 ng/ml (final reaction concentration: 5 ng/ml) and 400 nM (final reaction concentration: 100 nM), respectively. The buffer solution used for all dilution and preparation processes was 1× reaction solution with 1 mM DTT added, and the polarization detection solution was used to induce polarization at the end.
The prepared samples were dispensed on black microplates (Multiwell 384 well plates, #3573, Corning Life Sciences, Lowell, MA, USA) using a 16-channel pipette (multi 16-channel, Finnpipette, Thermo Scientific, Essex, UK). The total reaction volume per well is 20 μl. At this time, 10 μl of 2% DMSO, 5 μl of substrate solution, and 5 μl of reaction solution were used as a negative control, and 10 μl of 2% DMSO, 5 μl of substrate solution, and 5 μl of PDE9A solution were used as a positive control. As the experimental group, 10 μl of the compound prepared in Example, 5 μl of the substrate solution, and 5 μl of the PDE9A solution were used. After pretreatment between the compound and the enzyme was performed for about […] before the enzyme-substrate reaction, 5 μl of cGMP was added to induce the enzyme reaction. During the reaction, each compound, enzyme, and substrate occupied 50%, 25%, and 25% of the total volume, respectively, and they were prepared at high concentrations of 2, 4, and 4 times, respectively, immediately before addition. After the enzymatic reaction, it was shaken lightly for 1 minute and the enzyme reaction was induced at room temperature for 1 hour. Then, 60 μl of a polarization detection solution prepared in advance was added to induce polarization.
Nanoparticles composed of trivalent metal ions are mixed in the fluorescence detection solution, which combines with phosphoric acid expose by enzymatic reaction to increase the molecular weight and induce polarization. After leaving for 2 hours at room temperature, the polarization (Fluorescence Polarization, FP) value was measured using a multilabel counter (Envision, PerkinElmer, Turku, Finland) (emission wavelength: P-535 nm, S-535 nm, excitation wavelength: 480 nm), and the result was expressed as an IC50 value, which is the concentration of the compound that inhibited PDE9A by 50% in vitro (Table 2).

Sequence of PDE9A (O76083 whole entry): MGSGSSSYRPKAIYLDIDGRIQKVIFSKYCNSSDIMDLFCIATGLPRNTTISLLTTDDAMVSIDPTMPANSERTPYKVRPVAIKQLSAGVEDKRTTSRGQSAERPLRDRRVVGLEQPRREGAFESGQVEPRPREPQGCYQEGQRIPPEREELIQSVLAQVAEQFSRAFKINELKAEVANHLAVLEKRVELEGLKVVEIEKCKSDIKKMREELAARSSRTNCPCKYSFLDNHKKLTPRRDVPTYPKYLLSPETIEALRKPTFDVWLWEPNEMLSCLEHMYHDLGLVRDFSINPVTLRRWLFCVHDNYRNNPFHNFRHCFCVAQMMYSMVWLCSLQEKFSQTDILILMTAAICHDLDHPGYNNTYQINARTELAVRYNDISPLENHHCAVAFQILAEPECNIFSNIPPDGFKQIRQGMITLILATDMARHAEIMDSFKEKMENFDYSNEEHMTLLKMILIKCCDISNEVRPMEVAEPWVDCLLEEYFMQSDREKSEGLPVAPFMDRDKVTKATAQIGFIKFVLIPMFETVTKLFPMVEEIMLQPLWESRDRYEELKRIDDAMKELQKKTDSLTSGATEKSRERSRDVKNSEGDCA

| SMILES | IC50 [nM] |
| --- | --- |
| O=C(CSc1nc2c(cnn2C2CC2)c(=O)[nH]1)Nc1nnc(Br)s1 [Example 41, N-(5-bromo-1,3,4-thiadiazol-2-yl)-2-((1-cyclopropyl-4-oxo-4,5-dihydro-1H-pyrazolo[3,4-d]pyrimidin-6-yl)thio)acetamide] | 28 |
| O=C(CSc1nc2c(cnn2-c2ccccc2)c(=O)[nH]1)Nc1nnc(Cl)s1 [Example 30, N-(5-chloro-1,3,4-thiadiazol-2-yl)-2-((4-oxo-1-phenyl-4,5-dihydro-1H-pyrazolo[3,4-d]pyrimidin-6-yl)thio)acetamide] | 18 |
| O=C(CSc1nc2c(cnn2-c2ccccc2)c(=O)[nH]1)Nc1nnc(Br)s1 [Example 7, N-(5-bromo-1,3,4-thiadiazol-2-yl)-2-((4-oxo-1-phenyl-4,5-dihydro-1H-pyrazolo[3,4-d]pyrimidin-6-yl)thio)acetamide] | 12 |
| CCSc1nnc(NC(=O)C(C)Sc2nc3c(cnn3C3CCC(F)(F)CC3)c(=O)[nH]2)s1 (centres unmarked) [Example 28, 2-((1-(4,4-difluorocyclohexyl)-4-oxo-4,5-dihydro-1H-pyrazolo[3,4-d]pyrimidin-6-yl)thio)-N-(5-(ethylthio)-1,3,4-thiadiazol-2-yl)propanamide] | 0.1 |
| CCSc1nnc(NC(=O)CSc2nc3c(cnn3-c3ccccc3)c(=O)[nH]2)s1 [Example 2, N-(5-(ethylthio)-1,3,4-thiadiazol-2-yl)-2-((4-oxo-1-phenyl-4,5-dihydro-1H-pyrazolo[3,4-d]pyrimidin-6-yl)thio)acetamide] | 10 |
| CCSc1nnc(NC(=O)CSc2nc3c(cnn3-c3ccc(F)cc3)c(=O)[nH]2)s1 [Example 16, N-(5-(ethylthio)-1,3,4-thiadiazol-2-yl)-2-((1-(4-fluorophenyl)-4-oxo-4,5-dihydro-1H-pyrazolo[3,4-d]pyrimidin-6-yl)thio)acetamide] | 27 |
| CC(Sc1nc2c(cnn2C2CCOCC2)c(=O)[nH]1)C(=O)Nc1nnc(Br)s1 (centres unmarked) [Example 46, N-(5-bromo-1,3,4-thiadiazol-2-yl)-2-((4-oxo-1-(tetrahydro-2H-pyran-4-yl)-4,5-dihydro-1H-pyrazolo[3,4-d]pyrimidin-6-yl)thio)propanamide] | 0.2 |
| CC(Sc1nc2c(cnn2C2CCOCC2)c(=O)[nH]1)C(=O)Nc1nnc(Cl)s1 (centres unmarked) [Example 47, N-(5-chloro-1,3,4-thiadiazol-2-yl)-2-((4-oxo-1-(tetrahydro-2H-pyran-4-yl)-4,5-dihydro-1H-pyrazolo[3,4-d]pyrimidin-6-yl)thio)propanamide] | 0.1 |
| Cc1ccc(CSc2nnc(NC(=O)CSc3nc4c(cnn4-c4ccccc4)c(=O)[nH]3)s2)cc1 [Example 9] | 15 |
| CCSc1nnc(NC(=O)CSc2nc3c(cnn3C(C)C)c(=O)[nH]2)s1 [Example 37, N-(5-(ethylthio)-1,3,4-thiadiazol-2-yl)-2-((1-isopropyl-4-oxo-4,5-dihydro-1H-pyrazolo[3,4-d]pyrimidin-6-yl)thio)acetamide] | 1 |
| CCSc1nnc(NC(=O)C(C)Sc2nc3c(cnn3-c3ccccc3)c(=O)[nH]2)s1 (centres unmarked) [Example 11, N-(5-(ethylthio)-1,3,4-thiadiazol-2-yl)-2-((4-oxo-1-phenyl-4,5-dihydro-1H-pyrazolo[3,4-d]pyrimidin-6-yl)thio)propanamide] | 10 |
| O=C(CSc1nc2c(cnn2-c2ccccc2)c(=O)[nH]1)Nc1nnc(SCc2ccc(Cl)cc2)s1 [Example 8] | 19 |
| Cc1ccc(-c2nnc(NC(=O)CSc3nc4c(cnn4-c4ccccc4)c(=O)[nH]3)s2)cc1 [Example 24, 2-((4-oxo-1-phenyl-4,5-dihydro-1H-pyrazolo[3,4-d]pyrimidin-6-yl)thio)-N-(5-(p-tolyl)-1,3,4-thiadiazol-2-yl)acetamide] | 41 |
| O=C(CSc1nc2c(cnn2C2CCCCC2)c(=O)[nH]1)Nc1nnc(Cl)s1 [Example 42, N-(5-chloro-1,3,4-thiadiazol-2-yl)-2-((4-oxo-1-cyclohexyl-4,5-dihydro-1H-pyrazolo[3,4-d]pyrimidin-6-yl)thio)acetamide] | 1 |

From US12187729B2, “Compounds having PDE9A inhibitory activity, and pharmaceutical uses thereof” (KOREA RESEARCH INSTITUTE OF CHEMICAL TECHNOLOGY, priority 2018, dated 2025)
